Some test systems named below: NCI-H226; HT-29; OVCAR-5; SK-OV-3; HL-60; SF-295; NCI/ADR-RES; BT-549; NCI-H460; RPMI-8226; OVCAR-8; HCT-116; HCC 2998; DU-145; HCT-15; EKVX; A549; SW-620; PC-3; CCRF-CEM.
Holding throughout (test): DTP human tumour cell line panel, 48 h

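Step 1: Grow cells in 96-well plates. Step 2: Expose to compound for 48 hours at 5 concentrations. Step 3: Interpolate endpoints linearly; if unreached, use highest concentration. Here, GI50 denotes the concentration required for 50% inhibition of growth.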 Calls of active or inactive are those of the source. Rule as the data show it: active = GI50 up to about 1.1 µM and inactive = higher.

The GI50 is the concentration giving 50% growth inhibition.

On to `Cc1ccc([S+]([O-])C[C@](NC(=O)OCc2ccccc2)(Sc2ccccc2)C(F)F)cc1` (stereo not given in full), for which the GI50 is 12.9 µM (inactive) with NCI-H226; 16.6 µM (inactive) with HT-29; 31.6 µM (inactive) in the experiment with OVCAR-5; 16.7 µM (inactive) with SK-OV-3; 4.12 µM (inactive) in the experiment with HL-60; 16.8 µM (inactive) in the experiment on SF-295. The GI50 was 17 µM (inactive) in the experiment with NCI/ADR-RES; 16.3 µM (inactive) in the experiment with BT-549; 17.9 µM (inactive) with NCI-H460; 10.4 µM (inactive) in the experiment on RPMI-8226; 19.1 µM (inactive) in the experiment on OVCAR-8; 16.3 µM (inactive) in the experiment with HCT-116. Moreover, the GI50 was 18.7 µM (inactive) in the experiment with HCC 2998; 18.7 µM (inactive) in the experiment on DU-145; 17.1 µM in the experiment with HCT-15; 13.7 µM (inactive) in the experiment with EKVX; 28.6 µM (inactive) with A549; 19.6 µM (inactive) with SW-620. For the same molecule, the GI50 was 21.2 µM (inactive) in the experiment with PC-3 and 1.11 µM (active) in the experiment with CCRF-CEM.

On to `O=C(Nc1ccc(Cl)c(Cl)c1)OCCN1c2ccccc2Sc2ccccc21`, for which the GI50 with HT-29, in the experiment with OVCAR-5, in the experiment with SK-OV-3, in the experiment on HL-60, in the experiment on SF-295 and in the experiment with NCI/ADR-RES was > 10 µM (inactive) in each case. The GI50 in the experiment with BT-549, in the experiment with RPMI-8226, in the experiment on OVCAR-8, in the experiment with HCT-116, in the experiment on HCC 2998 and in the experiment on DU-145 was > 10 µM (inactive) in each case. In addition, the GI50 in the experiment on HCT-15 is over 10 µM; with A549 it was > 10 µM (inactive); in the experiment with SW-620, > 10 µM (inactive); in the experiment with PC-3, > 10 µM (inactive); in the experiment with CCRF-CEM it was > 10 µM (inactive).

`C=C(C)C[C@H](Sc1nc2ccccc2s1)[C@H](C)O`: the GI50 was 22.5 µM (inactive) in the experiment with NCI-H226; 31.1 µM (inactive) with HT-29; 65.8 µM (inactive) in the experiment with OVCAR-5; 18.9 µM (inactive) with HL-60; 39.5 µM (inactive) in the experiment with SF-295; 33 µM (inactive) in the experiment with NCI/ADR-RES. Also, the GI50 with BT-549 was 40.2 µM (inactive); with NCI-H460, 45.3 µM (inactive); in the experiment with RPMI-8226, 28.9 µM (inactive); in the experiment with OVCAR-8, 34.3 µM (inactive); in the experiment on HCT-116, 39.4 µM (inactive); with HCC 2998, 59.2 µM (inactive). The GI50 in the experiment with DU-145 is 88.1 µM (inactive); in the experiment on HCT-15, 35.8 µM; in the experiment with EKVX, 32.4 µM (inactive); with A549, 50.5 µM (inactive); with SW-620, 45.4 µM (inactive); with PC-3, 22.6 µM (inactive).

As to `Cc1cc2nc(N3C(=O)/C(=C/Cc4ccco4)N=C3c3ccccc3)sc2cc1C`, the GI50 is 23.7 µM (inactive) in the experiment with HT-29; 24.9 µM (inactive) in the experiment with OVCAR-5; 92 µM (inactive) in the experiment with SK-OV-3; 23 µM (inactive) in the experiment with HL-60; 43.8 µM (inactive) in the experiment with SF-295; 27.6 µM (inactive) with NCI/ADR-RES. In addition, the GI50 in the experiment with BT-549 is 30.5 µM (inactive); in the experiment with NCI-H460 it was 23.6 µM (inactive); in the experiment on RPMI-8226 it was 23.7 µM (inactive); with OVCAR-8, 31.6 µM (inactive); with HCT-116, 17 µM (inactive); in the experiment on HCC 2998, 24.6 µM (inactive). Moreover, the GI50 in the experiment with DU-145 was 61.9 µM (inactive); in the experiment with HCT-15 it was 30.5 µM; in the experiment with EKVX, 20.7 µM (inactive); in the experiment on A549, 36.9 µM (inactive); in the experiment on SW-620 it was 31.3 µM (inactive); in the experiment with PC-3 it was 12.1 µM (inactive). Also, the GI50 in the experiment on CCRF-CEM is 9.18 µM (inactive).

Turning to `COC(C)(C)CCc1[nH]c2ccccc2c1CC(=O)NCCc1cncn1C`, the GI50 in the experiment with NCI-H226, in the experiment on HT-29, in the experiment with OVCAR-5, in the experiment on SK-OV-3, in the experiment on HL-60 and in the experiment with NCI/ADR-RES was > 100 µM (inactive) each time. Moreover, the GI50 in the experiment on BT-549, in the experiment with NCI-H460, in the experiment with RPMI-8226, in the experiment on OVCAR-8, with HCT-116 and in the experiment with HCC 2998 was > 100 µM (inactive) in each case. In addition, the GI50 with DU-145 was > 100 µM (inactive); with HCT-15 it was over 100 µM; with EKVX it was > 100 µM (inactive); in the experiment on A549, > 100 µM (inactive); with SW-620, > 100 µM (inactive); in the experiment on PC-3 it was > 100 µM (inactive). In addition, in the experiment on CCRF-CEM, the GI50 was > 100 µM (inactive).

`O=C1O/C(=C\c2ccccc2)N(c2ccccc2)C1=O`: the GI50 with NCI-H226, with HT-29, in the experiment on OVCAR-5, in the experiment on SK-OV-3, in the experiment on HL-60 and in the experiment with NCI/ADR-RES was > 100 µM (inactive) each time. Further, the GI50 in the experiment on BT-549, in the experiment with NCI-H460, in the experiment on RPMI-8226, with OVCAR-8, with HCT-116 and in the experiment with HCC 2998 was > 100 µM (inactive) each time. In addition, the GI50 with DU-145 was > 100 µM (inactive); in the experiment with HCT-15, over 100 µM; in the experiment on EKVX, > 100 µM (inactive); in the experiment with A549, > 100 µM (inactive); in the experiment on SW-620, > 100 µM (inactive); in the experiment with PC-3, > 100 µM (inactive). Besides, the GI50 in the experiment with CCRF-CEM is > 100 µM (inactive).

For `COC(=O)C1[C@H](C(=O)OC)C1(Br)CBr` (stereo not given in full), the GI50 with NCI-H226, with HT-29, with OVCAR-5, in the experiment with SK-OV-3, with HL-60 and in the experiment on SF-295 was > 100 µM (inactive) each time. For the same molecule, the GI50 in the experiment on NCI/ADR-RES, in the experiment on BT-549, with NCI-H460, in the experiment on RPMI-8226, in the experiment with OVCAR-8 and in the experiment with HCT-116 was > 100 µM (inactive) each time. Besides, the GI50 in the experiment with HCC 2998 is > 100 µM (inactive); with DU-145, > 100 µM (inactive); with HCT-15, over 100 µM; in the experiment with EKVX, > 100 µM (inactive); in the experiment on A549, > 100 µM (inactive); in the experiment with SW-620, > 100 µM (inactive). Also, in the experiment with PC-3, the GI50 was > 100 µM (inactive).

On to `N#CC(C#N)=Cc1c[nH]c(=O)[nH]c1=O`, for which the GI50 with NCI-H226, in the experiment with HT-29, in the experiment on OVCAR-5, in the experiment with SK-OV-3, in the experiment on HL-60 and with SF-295 was > 100 µM (inactive) each time. Besides, the GI50 in the experiment on NCI/ADR-RES, in the experiment on BT-549, in the experiment on NCI-H460, in the experiment with RPMI-8226, in the experiment on OVCAR-8 and in the experiment on HCT-116 was > 100 µM (inactive) throughout. The GI50 in the experiment with DU-145 was > 100 µM (inactive); with HCT-15, over 100 µM; in the experiment on EKVX, > 100 µM (inactive); in the experiment with A549 it was > 100 µM (inactive); in the experiment with SW-620, 54.2 µM (inactive); in the experiment on PC-3, > 100 µM (inactive). Further, in the experiment with CCRF-CEM, the GI50 is 17.8 µM (inactive).

With `O=c1[nH]nc(Cc2ccccc2)n1/N=C/c1cccnc1`, the GI50 in the experiment on NCI-H226, with HT-29, in the experiment on OVCAR-5, in the experiment with HL-60, in the experiment with SF-295 and in the experiment with NCI/ADR-RES was > 100 µM (inactive) in each case. Besides, the GI50 in the experiment with BT-549 is 25 µM (inactive); in the experiment with NCI-H460, > 100 µM (inactive); in the experiment with RPMI-8226, > 100 µM (inactive); with OVCAR-8 it was > 100 µM (inactive); in the experiment on HCT-116, > 100 µM (inactive); in the experiment with HCC 2998, > 100 µM (inactive). Besides, the GI50 with DU-145 was > 100 µM (inactive); in the experiment with HCT-15 it was over 100 µM; with EKVX, > 100 µM (inactive); with A549, > 100 µM (inactive); with SW-620 it was > 100 µM (inactive); in the experiment on PC-3 it was > 100 µM (inactive). In addition, the GI50 with CCRF-CEM is > 100 µM (inactive).

As to `Clc1ccc(-c2cn3c(nc4ccccc43)c(/C=C/c3cccs3)n2)cc1`, the GI50 with NCI-H226, in the experiment with HT-29, with OVCAR-5, in the experiment on SK-OV-3, with HL-60 and in the experiment with NCI/ADR-RES was > 100 µM (inactive) throughout. For the same molecule, the GI50 was > 100 µM (inactive) in the experiment with BT-549; 67.8 µM (inactive) in the experiment with NCI-H460; 36.5 µM (inactive) in the experiment on RPMI-8226; 97.9 µM (inactive) in the experiment with HCT-116; > 100 µM (inactive) with HCC 2998; > 100 µM (inactive) in the experiment with DU-145. For the same molecule, the GI50 in the experiment on HCT-15 is over 100 µM; with A549, > 100 µM (inactive); in the experiment with SW-620, > 100 µM (inactive); in the experiment with PC-3, 44.9 µM (inactive); in the experiment with CCRF-CEM, 45 µM (inactive).

With `Fc1c(F)c(C(F)(F)F)c(F)c(F)c1N/N=C\c1c[nH]c2ccccc12`, the GI50 in the experiment on HT-29 is 2.48 µM (inactive); with OVCAR-5, 3.94 µM (inactive); in the experiment with SK-OV-3 it was 1.39 µM (inactive); in the experiment on HL-60 it was 2.54 µM (inactive); in the experiment with SF-295, 2.2 µM (inactive); in the experiment with NCI/ADR-RES, 2.13 µM (inactive). Further, the GI50 in the experiment on BT-549 was 1.5 µM (inactive); in the experiment on NCI-H460, 1.86 µM (inactive); in the experiment with RPMI-8226 it was 2.81 µM (inactive); in the experiment on OVCAR-8 it was 6.43 µM (inactive); in the experiment with HCT-116 it was 3.73 µM (inactive); in the experiment on HCC 2998 it was 1.85 µM (inactive). The GI50 is 3.64 µM (inactive) in the experiment with DU-145; 3.37 µM with HCT-15; 2.84 µM (inactive) in the experiment with EKVX; 3.16 µM (inactive) in the experiment on A549; 3.37 µM (inactive) with SW-620; 2.13 µM (inactive) in the experiment on PC-3. Besides, in the experiment on CCRF-CEM, the GI50 is 1.23 µM (inactive).

(Values after ChEMBL document CHEMBL1201862, “PubChem BioAssay data set” (2004).)
